Where only a bound is given, the exact number is not on record here.

Test [1] concerns the target T1, Geranylgeranyl pyrophosphate synthase (Homo sapiens, UniProt O95749).
T1 sequence (O95749 whole entry): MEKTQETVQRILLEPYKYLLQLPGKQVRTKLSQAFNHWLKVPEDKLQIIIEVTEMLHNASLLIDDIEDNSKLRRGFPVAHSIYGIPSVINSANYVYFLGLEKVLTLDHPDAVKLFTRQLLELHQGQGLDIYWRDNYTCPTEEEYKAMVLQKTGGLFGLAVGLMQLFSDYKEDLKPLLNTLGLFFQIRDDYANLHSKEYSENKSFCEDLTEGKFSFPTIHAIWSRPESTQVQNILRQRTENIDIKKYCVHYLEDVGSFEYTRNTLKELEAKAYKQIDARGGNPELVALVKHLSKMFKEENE
Kind of test: Inhibition of recombinant human N- terminal His-tagged GGPPS (1 to 300 residues) expressed in Escherichia coli.

Test [2] deals with T2, Farnesyl pyrophosphate synthase (Homo sapiens, UniProt P14324).
T2 sequence (P14324 whole entry): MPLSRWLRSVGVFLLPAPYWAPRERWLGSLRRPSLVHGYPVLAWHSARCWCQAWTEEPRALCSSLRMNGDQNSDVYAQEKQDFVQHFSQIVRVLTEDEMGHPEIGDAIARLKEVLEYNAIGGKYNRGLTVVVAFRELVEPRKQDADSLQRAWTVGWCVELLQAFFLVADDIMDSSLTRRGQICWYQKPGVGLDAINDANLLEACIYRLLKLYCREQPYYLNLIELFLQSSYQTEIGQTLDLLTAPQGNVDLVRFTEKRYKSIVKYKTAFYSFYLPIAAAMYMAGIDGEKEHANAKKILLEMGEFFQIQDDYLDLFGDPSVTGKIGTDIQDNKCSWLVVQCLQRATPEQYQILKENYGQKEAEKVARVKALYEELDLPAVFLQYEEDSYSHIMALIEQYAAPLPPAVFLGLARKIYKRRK
Kind of test: Inhibition of FPPS (unknown origin).

Test [3] concerns the target T3, Geranylgeranyl pyrophosphate synthase (Homo sapiens) (UniProt O95749).
T3 sequence (whole entry): T1 sequence (O95749 whole entry)
Kind of test: Inhibition of GGPPS in human MDA-MB-231 cells assessed as reduction in cell growth at 100 uM incubated for 72 hrs by MTT assay relative to control. It counts as cell-based. (Tetrazolium assays rely on reduction of a dye to a coloured formazan, in cell work by metabolically active cells.)

Test [4] concerns the target T3, Geranylgeranyl pyrophosphate synthase (Homo sapiens). Nature of the test: Inhibition of GGPPS in human A549 cells assessed as reduction in cell growth at 100 uM incubated for 72 hrs by MTT assay relative to control. Format: cell-based.
For test [5] the target is unchanged. Nature of the test: Inhibition of GGPPS in human MIA PaCa-2 cells assessed as reduction in cell growth at 100 uM incubated for 72 hrs by MTT assay relative to control. Format: cell-based.
For a further test, the system named is RPMI-8226. Kind of test: Antiproliferative activity against human RPMI-8226 cells. Format: functional, cell-based.

Regarding `CC(C)=CCC/C(C)=C\CCc1cn(CC(O)(P(=O)(O)O)P(=O)(O)O)nn1`, the IC50 in test [1] worked out at 0.075 µM; in test [2] it was 33.3 µM.
As for `CC(C)=CCC/C(C)=C/CCc1cn(CC(O)(P(=O)(O)O)P(=O)(O)O)nn1`, the IC50 in test [1] is 0.173 µM; in test [2] it was 49.6 µM.
Take `CCCCc1cn(CCCC(O)(P(=O)(O)O)P(=O)(O)O)nn1`: the growth inhibition (GI) in test [3], in test [4] and in test [5] was below 30% each time.
Molecule `CC(C)=CCCC(C)=CCCc1cn(CC(O)(P(=O)(O)O)P(=O)(O)O)nn1` showed an EC50 with RPMI-8226 of 0.19 µM.

The term IC50 denotes the concentration that gives 50% inhibition. One may read the EC50 as the concentration that produces a half-maximal response.

(Values after ChEMBL document CHEMBL4732201, “Synthesis and preliminary anticancer evaluation of new triazole bisphosphonate-based isoprenoid biosynthesis inhibitors” (Eur J Med Chem, 2021).)
